# Read-outs that look alike come from different tables or passages of the source.
# Assays:
# [1] = target: T1, human B1R (Homo sapiens, UniProt P46663); assay: FLIPR Ca2+ influx assay, B1R antagonism, human (hB1R CHO K1 cells); type: cell-based
# T1 construct: expressed in transfected cells; host or cells: CHO K1 cells (hB1R cells)
# T1 sequence (P46663 1-353): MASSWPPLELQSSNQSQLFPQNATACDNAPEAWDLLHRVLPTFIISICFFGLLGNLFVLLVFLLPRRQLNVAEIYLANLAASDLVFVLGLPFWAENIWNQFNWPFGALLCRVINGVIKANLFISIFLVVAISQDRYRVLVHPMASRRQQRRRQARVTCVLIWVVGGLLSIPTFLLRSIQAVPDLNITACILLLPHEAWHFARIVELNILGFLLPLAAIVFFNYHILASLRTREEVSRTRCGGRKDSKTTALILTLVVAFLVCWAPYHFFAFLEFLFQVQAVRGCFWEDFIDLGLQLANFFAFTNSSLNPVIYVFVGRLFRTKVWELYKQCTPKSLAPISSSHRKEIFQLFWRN
# Experimental: (§1) The agonistic or antagonistic action of substances can be quantified on the bradykinin receptor 1 (B1R) of the species human and rat using ectopically expressing cell lines (CHO K1 cells) and with the aid of a Ca^2+-sensitive dye (Fluo-4) using a fluorescent imaging plate reader (FLIPR). The indication in % activation is based on the Ca^2+ signal after addition of Lys-Des-Arg^9-bradykinin (0.5 nM) or Des-Arg^9-bradykinin (100 nM). Antagonists lead to suppression of the Ca^2+ influx after the addition of the agonist. % Inhibition compared with the maximum achievable inhibition is indicated.
# (§2) The agonistic or antagonistic action of substances can be determined on the bradykinin receptor 1 (B1R) of the species human and rat using the following assay. According to this assay, the Ca^2+ influx through the channel is quantified with the aid of a Ca^2+-sensitive dye (Fluo-4 type, Molecular Probes Europe BV, Leiden, Netherlands) using a Fluorescent Imaging Plate Reader (FLIPR, Molecular Devices, Sunnyvale, USA).
# (§3) Chinese hamster ovary cells (CHO K1 cells) which have been stably transfected with the human B1R gene (hB1R cells) or with the B1R gene of the rat (rB1R cells) are used. For functional studies, the cells are plated out on black 96-well plates having a clear base (BD Biosciences, Heidelberg, Germany or Greiner, Frickenhausen, Germany) in a density of 20,000-35,000 cells/well. The cells are incubated overnight at 37° C. and with 5% CO2 in culture medium (hB1R cells: Nutrient Mixture Ham's F12, Gibco Invitrogen GmbH, Karlsruhe, Germany or DMEM, Sigma-Aldrich, Taufkirchen, Germany; rB1R cells: D-MEM/F12, Gibco Invitrogen GmbH, Karlsruhe, Germany), with 10 vol. % FBS (fetal bovine serum, Gibco Invitrogen GmbH, Karlsruhe, Germany or PAN Biotech GmbH, Aidenbach, Germany).
# (§4) On the following day, the cells are loaded for 60 minutes at 37° C. with 2.13 μM Fluo-4 (Molecular Probes Europe BV, Leiden, Netherlands) in HBSS buffer (Hank's buffered saline solution, Gibco Invitrogen GmbH, Karlsruhe, Germany) […] (Sigma-Aldrich, Taufkirchen, Germany) and 10 mM HEPES (Sigma-Aldrich, Taufkirchen, Germany). The plates are then washed twice with HBSS buffer, and HBSS buffer additionally containing 0.1% BSA (bovine serum albumin; Sigma-Aldrich, Taufkirchen, Germany), 5.6 mM glucose and 0.05% gelatin (Merck KGaA, Darmstadt, Germany) is added to the plates. After incubation for a further 20 minutes at room temperature, the plates are inserted into the FLIPR for Ca^2+ measurement.
# (§5) Alternatively, washing is carried out with buffer A (15 mM HEPES, 80 mM NaCl, 5 mM KCl, 1.2 mM CaCl2, 0.7 mM MgSO4, 2 g/l glucose, 2.5 mM probenecid) followed by loading with buffer A with added 2.5 μM Fluo-4 and 0.025% Pluronic F127 (Sigma-Aldrich, Taufkirchen, Germany). The cells are then washed twice with buffer A and incubated for 30 minutes at room temperature with buffer A additionally containing 0.05% BSA and 0.05% gelatin and are then inserted into the FLIPR for Ca^2+ measurement.
# (§6) The Ca^2+-dependent fluorescence is measured before and after the addition of substances (λex=488 nm, λem=540 nm). Quantification is carried out by measuring the highest fluorescence intensity (FC, fluorescence counts) over time.
# (§7) The FLIPR protocol consists of two substance additions. Test substances (10 μM) are first pipetted onto the cells and the Ca^2+ influx is compared with the control (hB1R: Lys-Des-Arg^9-bradykinin >=50 nM; rB1R: Des-Arg^9-bradykinin 10 μM). This gives the activation in %, based on the Ca^2+ signal after addition of Lys-Des-Arg^9-bradykinin (>=50 nM) or Des-Arg^9-bradykinin (10 μM). After 10-20 minutes' incubation, Lys-Des-Arg^9-bradykinin (hB1R) or Des-Arg^9-bradykinin (rB1R) is applied in the concentration of the EC80, and the influx of Ca^2+ is likewise determined. Antagonists lead to suppression of the Ca^2+ influx. The % inhibition compared with the maximum achievable inhibition is calculated. […]
# [2] = target: T2, B1R of the rat (Rattus norvegicus, UniProt P97583); assay: FLIPR Ca2+ influx assay, B1R antagonism, rat (rB1R CHO K1 cells); type: cell-based
# T2 construct: expressed in transfected cells; host or cells: CHO K1 cells (rB1R cells)
# T2 sequence (P97583 1-337): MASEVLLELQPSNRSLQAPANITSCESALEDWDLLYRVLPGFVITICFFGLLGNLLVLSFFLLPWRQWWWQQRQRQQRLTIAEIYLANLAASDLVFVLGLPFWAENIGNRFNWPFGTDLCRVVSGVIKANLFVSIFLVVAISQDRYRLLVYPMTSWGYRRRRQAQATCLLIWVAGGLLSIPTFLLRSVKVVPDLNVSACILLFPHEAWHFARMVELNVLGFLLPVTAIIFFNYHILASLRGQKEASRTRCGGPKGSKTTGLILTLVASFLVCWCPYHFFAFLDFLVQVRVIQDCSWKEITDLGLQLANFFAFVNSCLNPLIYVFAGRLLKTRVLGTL
# Experimental: as §1, §2, §3, §4, §5, §6, §7
# [3] = test substance 10 μM, CHO K1 cells stably transfected with rat B1R, agonist Des-Arg9-bradykinin at EC80, % inhibition compared with maximum achievable inhibition, read-out: B1R antagonism, rat [10 μM] % inhibition
# [4] = test substance 10 μM, CHO K1 cells stably transfected with rat B1R, agonist Des-Arg9-bradykinin at EC80, % inhibition compared with maximum achievable inhibition
"inhibition at 10 µM [2, 3] [%]","B1R antagonism, rat [10 μM] % inhibition [2, 4] [%]",Compound,also measured
63,–,"O=C(CC(NS(=O)(=O)c1ccc2ccccc2c1)c1ccccc1)N1CCC(CCN2CCCC2)(c2cccnc2)CC1 (stereo not shown) [Example 1, N-(3-Oxo-1-phenyl-3-(4-(pyridin-3-yl)-4-(2-(pyrrolidin-1-yl)ethyl)piperidin-1-yl)propyl)naphthalene-2-sulfonamide]","inhibition at 10 µM ([1]; test substance 10 μM, CHO K1 cells stably transfected with human B1R, agonist Lys-Des-Arg9-bradykinin at EC80, % inhibition compared with maximum achievable inhibition, read-out: B1R antagonism, human [10 μM] % inhibition): 104%"
–,–,"COc1cc(C)c(S(=O)(=O)N2CCCCC2COCC(=O)N2CCC(CCN3CCCC3)(c3cccnc3)CC2)c(C)c1 (stereo not shown) [Example 2, 2-((1-(4-Methoxy-2,6-dimethylphenylsulfonyl)piperidin-2-yl)methoxy)-1-(4-(pyridin-3-yl)-4-(2-(pyrrolidin-1-yl)ethyl)piperidin-1-yl)ethanone]","inhibition at 10 µM ([1]; CHO-K1, read-out: B1R antagonism, human [10 μM] % inhibition): 103%; inhibition at 10 µM ([2]; CHO-K1, read-out: B1R antagonism, rat [10 μM] % inhibition): 102%"
–,–,"COc1cc(C)c(S(=O)(=O)N2c3ccccc3CCC2COCC(=O)N2CCC(CCCN3CCCC3)(c3cccnc3)CC2)c(C)c1 (stereo not shown) [Example 54, 2-[[1-[(4-Methoxy-2,6-dimethyl-phenyl)sulfonyl]-1,2,3,4-tetrahydro-quinolin-2-yl]-methoxy]-1-[4-pyridin-3-yl-4-(3-pyrrolidin-1-yl-propyl)-piperidin-1-yl]-ethanone]","B1R antagonism, human [10 μM] % inhibition ([1]; test substance 10 μM, CHO K1 cells stably transfected with human B1R, agonist Lys-Des-Arg9-bradykinin at EC80, % inhibition compared with maximum achievable inhibition): 100%"
–,101,"O=C(CCCC1CCCCN1S(=O)(=O)c1ccccc1C(F)(F)F)N1CCC(CCCN2CCCC2)(c2ccncc2)CC1 (stereo not shown) [Example 59, 1-[4-Pyridin-4-yl-4-(3-pyrrolidin-1-yl-propyl)-piperidin-1-yl]-4-[1-[[2-(trifluoromethyl)-phenyl]sulfonyl]-piperidin-2-yl]-butan-1-one]",–
100,–,"COc1cc(C)c(S(=O)(=O)N2CCCCC2CCCC(=O)N2CCC(CCCN3CCCC3)(c3ccncc3)CC2)c(C)c1 (stereo not shown) [Example 62, 4-[1-[(4-Methoxy-2,6-dimethyl-phenyl)sulfonyl]-piperidin-2-yl]-1-[4-pyridin-4-yl-4-(3-pyrrolidin-1-yl-propyl)-piperidin-1-yl]-butan-1-one]",–
–,102,"COc1cc(C)c(S(=O)(=O)N2CCCCC2CCCC(=O)N2CCC(CCCN3CCCC3)(c3ccncc3)CC2)c(C)c1 (stereo not shown) [Example 63, 4-[1-[(4-Methoxy-2,6-dimethyl-phenyl)sulfonyl]-piperidin-2-yl]-1-[4-pyridin-4-yl-4-(3-pyrrolidin-1-yl-propyl)-piperidin-1-yl]-butan-1-one]",–
46,–,"O=C(CCCC1CCCCN1S(=O)(=O)c1cccc2ccccc12)N1CCC(CCCN2CCCC2)(c2ccncc2)CC1 (stereo not shown) [Example 64, 4-[1-(Naphthalen-1-ylsulfonyl)-piperidin-2-yl]-1-[4-pyridin-4-yl-4-(3-pyrrolidin-1-yl-propyl)-piperidin-1-yl]-butan-1-one]",–
–,63,"CS(=O)(=O)N(CCOCC(=O)N1CCC(CCCN2CCCC2)(c2ccncc2)CC1)C(c1ccccc1)c1ccccc1 [Example 65, N-Benzhydryl-N-[2-[2-oxo-2-[4-pyridin-4-yl-4-(3-pyrrolidin-1-yl-propyl)-piperidin-1-yl]-ethoxy]-ethyl]-methanesulfonic acid amide]",–
–,99,"CS(=O)(=O)N(CCOCC(=O)N1CCC(CCCN2CCCC2)(c2ccncc2)CC1)C(c1ccccc1)c1ccccc1 [Example 66, N-Benzhydryl-N-[2-[2-oxo-2-[4-pyridin-4-yl-4-(3-pyrrolidin-1-yl-propyl)-piperidin-1-yl]-ethoxy]-ethyl]-methanesulfonic acid amide]",–
99,–,"COc1cc(C)c(S(=O)(=O)N2c3ccccc3OCC2COCC(=O)N2CCC(CCCN3CCCC3)(c3ccncc3)CC2)c(C)c1 (stereo not shown) [Example 69, 2-[[4-[(4-Methoxy-2,6-dimethyl-phenyl)sulfonyl]-3,4-dihydro-2H-[1,4]benzoxazin-3-yl]-methoxy]-1-[4-pyridin-4-yl-4-(3-pyrrolidin-1-yl-propyl)-piperidin-1-yl]-ethanone]",–
–,100,"COc1cc(C)c(S(=O)(=O)N2c3ccccc3OCC2COCC(=O)N2CCC(CCCN3CCCC3)(c3ccncc3)CC2)c(C)c1 (stereo not shown) [Example 70, 2-[[4-[(4-Methoxy-2,6-dimethyl-phenyl)sulfonyl]-3,4-dihydro-2H-[1,4]benzoxazin-3-yl]-methoxy]-1-[4-pyridin-4-yl-4-(3-pyrrolidin-1-yl-propyl)-piperidin-1-yl]-ethanone]",–
84,–,"O=C(COCC1COc2ccccc2N1S(=O)(=O)c1ccccc1C(F)(F)F)N1CCC(CCCN2CCCC2)(c2cccnc2)CC1 (stereo not shown) [Example 73, 1-[4-Pyridin-3-yl-4-(3-pyrrolidin-1-yl-propyl)-piperidin-1-yl]-2-[[4-[[2-(trifluoromethyl)-phenyl]sulfonyl]-3,4-dihydro-2H-[1,4]benzoxazin-3-yl]-methoxy]-ethanone]",–
68,–,"O=C(COCC1COc2ccccc2N1S(=O)(=O)c1ccccc1C(F)(F)F)N1CCC(CCCN2CCCC2)(c2ccncc2)CC1 (stereo not shown) [Example 75, 1-[4-Pyridin-4-yl-4-(3-pyrrolidin-1-yl-propyl)-piperidin-1-yl]-2-[[4-[[2-(trifluoromethyl)-phenyl]sulfonyl]-3,4-dihydro-2H-[1,4]benzoxazin-3-yl]-methoxy]-ethanone]",–
101,–,"COc1cc(C)c(S(=O)(=O)N(CCOCC(=O)N2CCC(CCCN3CCCC3)(c3ccncc3)CC2)Cc2ccc3c(c2)OCOC3)c(C)c1 [Example 76, N-(4H-[1,3]Benzodioxin-7-yl-methyl)-4-methoxy-2,6-dimethyl-N-[2-[2-oxo-2-[4-pyridin-4-yl-4-(3-pyrrolidin-1-yl-propyl)-piperidin-1-yl]-ethoxy]-ethyl]-benzenesulfonic acid amide]",–

# — US8124624B2, “Substituted sulfonamide compounds” (Gruenenthal GmbH, priority 2008, dated 2012)
